Source: US20120065228A1, “COMPOSITIONS AND METHODS FOR TREATING, CONTROLLING, REDUCING, OR AMELIORATING OCULAR INFLAMMATORY WITH LOWER RISK OF INCREASED INTRAOCULAR PRESSURE” (priority 2007, published 2012)

What was measured:
[1] = tested on: intraocular pressure (IOP) in New Zealand White rabbits; assay: Intraocular pressure in New Zealand White rabbits, topical dosing four times daily; assay type: in vivo
Experimental: On Days 1-31, animals received daily topical doses of the appropriate test article into the right eye. Animals were dosed four times per day, with doses administered 2 hours apart. Doses were administered using a calibrated 50-μL pipette. The eyelids were held close for 10 seconds immediately following dosing. The time of each dose administration was recorded.
Intraocular pressure (“IOP”) was determined for both eyes of each animal on Days 3, 5, 10, 12, 16, 18, 22, 24, 26, 30, and 32. LOP was evaluated with a Medtronic Solan, Model 30 classic pneumatonometer. Proparacaine hydrochloride 0.5% (1 drop) was delivered to each eye prior to IOP measurement. IOP was measured on Monday, Wednesday, and Friday of each week. A two-point diurnal curve was established: IOP was recorded at 8 a.m. and 12 p.m. on Day 3, and at 8 a.m. and 2 p.m. on later days, with a ±1 hour range for each of these times. The time of the measurements was recorded.
Descriptive statistics were prepared for IOP data of each treatment group (left and right eyes separately) at each measurement interval. The statistics included the number of observations (“N”), mean, standard deviation (“STD”), and standard error (“SEM”). Statistical analyses were conducted on IOP results using Statistical Analysis Systems (SAS Institute, Inc., Cary, N.C., V8.0). Parameters were evaluated using analysis of variance/GLM Procedure followed by Tukey's Standardized Range Test (Tukey, 1985) for post hoc comparisons of group means. The level of significance was set at a probability of p<0.05 for all statistical procedures. Group IOP means were compared at each interval, with left and right eyes compared separately.
IOP data for the following six animals were excluded from group statistics: Group A, Nos. 3081, 3037, 3068, and 3011; Group C, No. 3034; and Group E, No. 3084.

monkey TM cells = assay: Cell metabolic activity (resazurin reduction) assay in monkey TM cells; assay type: cell-based, rhesus monkeys (Macaca mulatta); conditions: at the conclusion of the treatment periods
Experimental: A modification of previously described methods^40 was employed to evaluate cell metabolic activity, an index of cell viability. After collection of CM samples, cells were briefly rinsed in modified Hanks balanced salt solution containing Ca^++ and Mg^++ (“MHBSS”), and then 0.0025% (w/v) resazurin (Sigma) in MHBSS was added to sample wells. Plates were incubated (37° C., 5% CO2, 95% humidity) for 90 minutes, after which fluorescence (Excitation 560 nm, Emission 590 nm) was read (Victor 3V Multilabel Counter, Wallac, Turku, Finland). As a positive control for decreased cellular metabolic reduction of resazurin, in each plate an additional well of vehicle control-treated cells was preincubated with 0.06% hydrogen peroxide (Fisher, Atlanta, Ga.) in MHBSS.

`Cc1ccc2c(NCC(O)(CC(C)(C)c3cc(F)cc4c3OCC4)C(F)(F)F)cccc2n1` (stereo not shown) [BOL-303242-X] was tested. Which “Intraocular Pressure, MEAN” value ([1]; treated right eyes, A.M. readings, Day 16, 5 mg/g (Group C)) did it give?
Its value is 24.3 mmHg.

What about the “Intraocular Pressure, MEAN” value ([1]; treated right eyes, A.M. readings, Day 16, 10 mg/g (Group B)) of the same compound?
The value was 23.4 mmHg.

And the “Intraocular Pressure, MEAN” value ([1]; treated right eyes, A.M. readings, Day 18, 1 mg/g (Group D))?
Its value is 23.7 mmHg.

And the “Intraocular Pressure, MEAN” value ([1]; treated right eyes, A.M. readings, Day 18, 5 mg/g (Group C))?
The value was 23.9 mmHg.

What about the “Intraocular Pressure, MEAN” value ([1]; treated right eyes, A.M. readings, Day 18, 10 mg/g (Group B)) of the same compound?
The value was 22.3 mmHg.

And the “Intraocular Pressure, MEAN” value ([1]; treated right eyes, A.M. readings, Day 22, 1 mg/g (Group D))?
Its value is 23.2 mmHg.

What about the “Intraocular Pressure, MEAN” value ([1]; treated right eyes, A.M. readings, Day 22, 5 mg/g (Group C)) of the same compound?
The value was 22.4 mmHg.

And the “Intraocular Pressure, MEAN” value ([1]; treated right eyes, A.M. readings, Day 22, 10 mg/g (Group B))?
Its value is 22.4 mmHg.

What about the “Intraocular Pressure, MEAN” value ([1]; treated right eyes, A.M. readings, Day 24, 1 mg/g (Group D)) of the same compound?
The value was 22.1 mmHg.

What about the “Intraocular Pressure, MEAN” value ([1]; treated right eyes, A.M. readings, Day 24, 5 mg/g (Group C)) of the same compound?
Its value is 23.8 mmHg.

And the “Intraocular Pressure, MEAN” value ([1]; treated right eyes, A.M. readings, Day 24, 10 mg/g (Group B))?
The value was 21.2 mmHg.

What about the “Intraocular Pressure, MEAN” value ([1]; treated right eyes, A.M. readings, Day 26, 1 mg/g (Group D)) of the same compound?
The value was 23.1 mmHg.

What about the “Intraocular Pressure, MEAN” value ([1]; treated right eyes, A.M. readings, Day 26, 5 mg/g (Group C)) of the same compound?
Its value is 22.1 mmHg.

What about the “Intraocular Pressure, MEAN” value ([1]; treated right eyes, A.M. readings, Day 26, 10 mg/g (Group B)) of the same compound?
Its value is 21.8 mmHg.

What about the “Intraocular Pressure, MEAN” value ([1]; treated right eyes, A.M. readings, Day 30, 1 mg/g (Group D)) of the same compound?
Its value is 24.2 mmHg.

What about the “Intraocular Pressure, MEAN” value ([1]; treated right eyes, A.M. readings, Day 30, 5 mg/g (Group C)) of the same compound?
Its value is 22.9 mmHg.

And the “Intraocular Pressure, MEAN” value ([1]; treated right eyes, A.M. readings, Day 30, 10 mg/g (Group B))?
The value was 22.7 mmHg.

What about the “Intraocular Pressure, MEAN” value ([1]; treated right eyes, A.M. readings, Day 32, 1 mg/g (Group D)) of the same compound?
Its value is 24.9 mmHg.

And the “Intraocular Pressure, MEAN” value ([1]; treated right eyes, A.M. readings, Day 32, 5 mg/g (Group C))?
The value was 23.4 mmHg.

What about the “Intraocular Pressure, MEAN” value ([1]; treated right eyes, A.M. readings, Day 32, 10 mg/g (Group B)) of the same compound?
The value was 23.9 mmHg.

And the “Intraocular Pressure, MEAN” value ([1]; treated right eyes, A.M. readings, Pre-Study, 1 mg/g (Group D))?
Its value is 24.4 mmHg.

And the “Intraocular Pressure, MEAN” value ([1]; treated right eyes, A.M. readings, Pre-Study, 5 mg/g (Group C))?
The value was 24.8 mmHg.

And the “Intraocular Pressure, MEAN” value ([1]; treated right eyes, A.M. readings, Pre-Study, 10 mg/g (Group B))?
The value was 24.0 mmHg.

And the “Intraocular Pressure, MEAN” value ([1]; untreated left eyes, P.M. readings, Day 3, 1 mg/g (Group D))?
The value was 25.0 mmHg.

And the “Intraocular Pressure, MEAN” value ([1]; untreated left eyes, P.M. readings, Day 3, 5 mg/g (Group C))?
Its value is 23.9 mmHg.

What about the “Intraocular Pressure, MEAN” value ([1]; untreated left eyes, P.M. readings, Day 3, 10 mg/g (Group B)) of the same compound?
The value was 23.3 mmHg.

And the “Intraocular Pressure, MEAN” value ([1]; untreated left eyes, P.M. readings, Day 5, 1 mg/g (Group D))?
The value was 24.7 mmHg.

And the “Intraocular Pressure, MEAN” value ([1]; untreated left eyes, P.M. readings, Day 5, 5 mg/g (Group C))?
The value was 24.8 mmHg.

What about the “Intraocular Pressure, MEAN” value ([1]; untreated left eyes, P.M. readings, Day 5, 10 mg/g (Group B)) of the same compound?
The value was 25.2 mmHg.

What about the “Intraocular Pressure, MEAN” value ([1]; untreated left eyes, P.M. readings, Day 10, 1 mg/g (Group D)) of the same compound?
The value was 24.9 mmHg.

What about the “Intraocular Pressure, MEAN” value ([1]; untreated left eyes, P.M. readings, Day 10, 5 mg/g (Group C)) of the same compound?
The value was 24.6 mmHg.

What about the “Intraocular Pressure, MEAN” value ([1]; untreated left eyes, P.M. readings, Day 10, 10 mg/g (Group B)) of the same compound?
Its value is 23.5 mmHg.

What about the “Intraocular Pressure, MEAN” value ([1]; untreated left eyes, P.M. readings, Day 12, 1 mg/g (Group D)) of the same compound?
The value was 23.7 mmHg.

And the “Intraocular Pressure, MEAN” value ([1]; untreated left eyes, P.M. readings, Day 12, 5 mg/g (Group C))?
The value was 23.3 mmHg.

And the “Intraocular Pressure, MEAN” value ([1]; untreated left eyes, P.M. readings, Day 12, 10 mg/g (Group B))?
Its value is 24.1 mmHg.

And the “Intraocular Pressure, MEAN” value ([1]; untreated left eyes, P.M. readings, Day 16, 1 mg/g (Group D))?
Its value is 21.9 mmHg.

And the “Intraocular Pressure, MEAN” value ([1]; untreated left eyes, P.M. readings, Day 16, 5 mg/g (Group C))?
The value was 20.4 mmHg.

And the “Intraocular Pressure, MEAN” value ([1]; untreated left eyes, P.M. readings, Day 16, 10 mg/g (Group B))?
Its value is 21.4 mmHg.

And the “Intraocular Pressure, MEAN” value ([1]; untreated left eyes, P.M. readings, Day 18, 1 mg/g (Group D))?
Its value is 22.7 mmHg.

And the “Intraocular Pressure, MEAN” value ([1]; untreated left eyes, P.M. readings, Day 18, 5 mg/g (Group C))?
The value was 21.9 mmHg.

And the “Intraocular Pressure, MEAN” value ([1]; untreated left eyes, P.M. readings, Day 18, 10 mg/g (Group B))?
Its value is 22.1 mmHg.

And the “Intraocular Pressure, MEAN” value ([1]; untreated left eyes, P.M. readings, Day 22, 1 mg/g (Group D))?
The value was 22.1 mmHg.

And the “Intraocular Pressure, MEAN” value ([1]; untreated left eyes, P.M. readings, Day 22, 5 mg/g (Group C))?
The value was 22.1 mmHg.

What about the “Intraocular Pressure, MEAN” value ([1]; untreated left eyes, P.M. readings, Day 22, 10 mg/g (Group B)) of the same compound?
Its value is 22.6 mmHg.

What about the “Intraocular Pressure, MEAN” value ([1]; untreated left eyes, P.M. readings, Day 24, 1 mg/g (Group D)) of the same compound?
The value was 22.9 mmHg.

What about the “Intraocular Pressure, MEAN” value ([1]; untreated left eyes, P.M. readings, Day 24, 5 mg/g (Group C)) of the same compound?
The value was 22.2 mmHg.

What about the “Intraocular Pressure, MEAN” value ([1]; untreated left eyes, P.M. readings, Day 24, 10 mg/g (Group B)) of the same compound?
Its value is 22.8 mmHg.

And the “Intraocular Pressure, MEAN” value ([1]; untreated left eyes, P.M. readings, Day 26, 1 mg/g (Group D))?
The value was 22.1 mmHg.

And the “Intraocular Pressure, MEAN” value ([1]; untreated left eyes, P.M. readings, Day 26, 5 mg/g (Group C))?
Its value is 22.3 mmHg.

What about the “Intraocular Pressure, MEAN” value ([1]; untreated left eyes, P.M. readings, Day 26, 10 mg/g (Group B)) of the same compound?
Its value is 21.4 mmHg.

And the “Intraocular Pressure, MEAN” value ([1]; untreated left eyes, P.M. readings, Day 30, 10 mg/g (Group B))?
Its value is 21.7 mmHg.

What about the “Cell viability (chemical reduction of resazurin) compared to vehicle controls” value (monkey TM cells) of the same compound?
Its value is “nor did any drug treatments result in a loss of cell viability”.
